From patent US5665704A, “Receptor specific atrial natriuretic peptides” (Genentech, Inc., priority 1995, dated 1997)
pIC50: −log10 of the molar value. Read-outs that look alike come from different tables or passages of the source. Values belong to the compound of their own block, whether it stands above or below them. Bridge positions count the residues as written; N and C are the ends. Square brackets hold non-standard residues; d marks the D form. Peptide text beside a SMILES is read from it. ξ: configuration not given here. ξPhg = NC(C(=O)O)c1ccccc1; Mpa = O=C(O)CCS

Tests used:
hNPR-A = target: T1, hNPR-A (Homo sapiens, UniProt P16066); assay: Binding affinity for hNPR-A (competitive displacement of I^125 labeled wild-type ANF)
T1 sequence (P16066 33-1061): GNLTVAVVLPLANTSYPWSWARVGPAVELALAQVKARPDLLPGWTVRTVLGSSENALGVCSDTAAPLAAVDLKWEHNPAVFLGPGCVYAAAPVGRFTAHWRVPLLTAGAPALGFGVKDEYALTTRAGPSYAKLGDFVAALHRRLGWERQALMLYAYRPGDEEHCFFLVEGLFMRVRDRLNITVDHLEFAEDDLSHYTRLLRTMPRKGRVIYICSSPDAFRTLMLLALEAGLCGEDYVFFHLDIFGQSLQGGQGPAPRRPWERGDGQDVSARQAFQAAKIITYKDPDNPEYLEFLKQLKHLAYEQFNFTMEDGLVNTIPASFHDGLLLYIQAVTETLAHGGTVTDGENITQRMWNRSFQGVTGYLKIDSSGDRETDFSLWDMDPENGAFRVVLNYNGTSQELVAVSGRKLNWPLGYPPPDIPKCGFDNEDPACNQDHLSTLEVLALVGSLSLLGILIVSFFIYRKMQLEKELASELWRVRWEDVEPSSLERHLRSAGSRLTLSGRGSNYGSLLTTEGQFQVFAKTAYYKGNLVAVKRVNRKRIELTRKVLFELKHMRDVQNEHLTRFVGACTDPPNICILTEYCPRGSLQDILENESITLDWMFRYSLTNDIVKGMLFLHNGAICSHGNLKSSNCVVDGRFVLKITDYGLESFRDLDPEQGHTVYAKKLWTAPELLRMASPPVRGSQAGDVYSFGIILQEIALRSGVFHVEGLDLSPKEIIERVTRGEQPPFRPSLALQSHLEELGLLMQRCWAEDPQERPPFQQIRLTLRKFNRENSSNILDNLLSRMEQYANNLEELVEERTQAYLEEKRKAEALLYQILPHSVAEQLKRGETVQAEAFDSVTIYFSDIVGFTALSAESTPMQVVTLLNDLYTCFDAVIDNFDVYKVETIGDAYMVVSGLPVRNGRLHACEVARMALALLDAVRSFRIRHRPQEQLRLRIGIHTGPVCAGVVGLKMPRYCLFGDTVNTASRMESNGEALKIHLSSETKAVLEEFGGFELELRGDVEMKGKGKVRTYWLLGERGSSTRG

hNPR-C = target: T2, hNPR-C (Homo sapiens, UniProt P17342); assay: Binding affinity for clearance receptor hNPR-C
T2 sequence (P17342 27-541): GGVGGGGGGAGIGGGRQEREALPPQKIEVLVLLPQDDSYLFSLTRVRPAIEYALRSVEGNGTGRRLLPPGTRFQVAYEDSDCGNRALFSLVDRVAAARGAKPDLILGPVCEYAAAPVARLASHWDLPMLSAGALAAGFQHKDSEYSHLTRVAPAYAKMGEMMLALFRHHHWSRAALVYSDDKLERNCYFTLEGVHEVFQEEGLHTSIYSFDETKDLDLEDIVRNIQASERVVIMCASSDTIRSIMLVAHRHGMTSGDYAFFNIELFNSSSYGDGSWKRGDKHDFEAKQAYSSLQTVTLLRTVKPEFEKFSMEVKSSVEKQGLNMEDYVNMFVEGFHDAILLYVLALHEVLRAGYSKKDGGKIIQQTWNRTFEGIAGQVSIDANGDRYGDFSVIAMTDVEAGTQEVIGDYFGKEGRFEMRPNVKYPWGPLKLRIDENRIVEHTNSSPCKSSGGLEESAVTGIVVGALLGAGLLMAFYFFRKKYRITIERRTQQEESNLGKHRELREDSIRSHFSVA
Text: For assay systems to measure binding of hANF and the compounds of this invention to hNPR-C see: Schank, D. B., et al., Biochem. Biophys. Res. Comm. 127:433-442 (1985); Scarborough, R. M., J. Biol. Chem. 261:12960-12964 and WO 90/01940.

[1] = target: T3, Human endopeptidase 24.11 (hNEP) (Homo sapiens, UniProt P08473); assay: Degradation of ANF variants by human NEP, half-life by HPLC (Example 22)
T3 sequence (P08473 whole entry): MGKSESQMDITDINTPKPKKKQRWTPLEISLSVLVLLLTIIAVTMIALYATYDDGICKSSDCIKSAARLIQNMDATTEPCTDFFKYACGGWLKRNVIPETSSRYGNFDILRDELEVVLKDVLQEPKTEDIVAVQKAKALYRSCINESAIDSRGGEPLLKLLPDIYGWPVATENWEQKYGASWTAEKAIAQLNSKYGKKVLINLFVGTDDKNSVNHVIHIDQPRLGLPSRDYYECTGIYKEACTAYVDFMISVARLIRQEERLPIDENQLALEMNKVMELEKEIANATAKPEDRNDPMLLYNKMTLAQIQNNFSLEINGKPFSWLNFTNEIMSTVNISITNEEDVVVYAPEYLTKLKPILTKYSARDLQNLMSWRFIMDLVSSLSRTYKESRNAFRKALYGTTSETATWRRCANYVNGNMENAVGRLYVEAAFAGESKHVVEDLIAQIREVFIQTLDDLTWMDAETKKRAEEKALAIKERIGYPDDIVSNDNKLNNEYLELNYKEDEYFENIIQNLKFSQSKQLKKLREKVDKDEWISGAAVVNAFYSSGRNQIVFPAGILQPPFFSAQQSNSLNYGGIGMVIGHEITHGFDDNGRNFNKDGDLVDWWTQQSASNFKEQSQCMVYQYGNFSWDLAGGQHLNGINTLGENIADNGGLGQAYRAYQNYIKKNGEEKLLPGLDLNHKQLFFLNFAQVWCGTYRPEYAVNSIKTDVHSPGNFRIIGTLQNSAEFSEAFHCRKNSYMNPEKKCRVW
Procedure: (§1) The half-life of various ANF variants was measured according to the following procedure.
(§2) ANF Solution: An accurately weighed amount of ANF or variant thereof was diluted with HEPES buffer (5 ml of 1M HEPES Buffer and 0.1 ml of Tween 20 diluted to a 100 ml volume with DI water) to make a 0.5 mg/ml solution.
(§3) hNEP/HEPES Solution: 75 μl of a 1 mg/ml solution of hNEP (see U.S. Pat. No. 4,960,700) is dissolved in 992.5 μl of HEPES buffer (as described above) and vortex mixed. The resulting mixture is stored in a silylated Eppendorf tube and periodically checked for activity against an ANF peptide standard.
(§4) Assay conditions: 150 μl of an ANF solution in the HEPES buffer is diluted with 820 μl HEPES buffer and vortex mixed (1 sec). Careful note of the time is taken as 30 μl of the hNEP/HEPES solution is added and the solution is vortex mixed for 1 sec. and analyzed by periodic removal of constant volume aliquots by the HPLC autosampler. A 2.5 cm×50 cm, C-18 reversed-phase column (15 micron, 300Å]) was used and elution was achieved by using a shallow gradient of increasing acetonitrile. The elution conditions consisted of a 10% to 50% acetonitrile (containing 0.1% TFA) gradient at 0.5% min.^-1. The aqueous phase was 0.1% TFA in water. The peak area of the ANP peptide is recorded at these periodic intervals and a half-life is determined from these values.

[2] = target: T3, Human endopeptidase 24.11 (hNEP); assay: in vitro; settings: isolated enzyme
Procedure: as §1, §2, §3, §4

SMILES: CC[C@H](C)[C@@H]1NC(=O)[C@H](CCCNC(=N)N)NC(=O)[C@H](CC(=O)O)NC(=O)[C@H]([C@@H](C)CC)NC(=O)[C@H](CCCNC(=N)N)NC(=O)CNC(=O)CNC(=O)[C@H](Cc2ccccc2)NC(=O)[C@@H](NC(=O)[C@H](CO)NC(=O)[C@H](CO)NC(=O)[C@H](CCCNC(=N)N)NC(=O)[C@H](CCCNC(=N)N)NC(=O)[C@H](CC(C)C)NC(=O)[C@H](CO)NC(=O)[C@H](CCCNC(=N)N)NC(=O)[C@@H]2CCCN2C(=O)[C@H](C)NC(=O)[C@@H](N)[C@@H](C)O)CSSC[C@@H](C(=O)N[C@@H](CC(N)=O)C(=O)N[C@@H](CO)C(=O)N[C@@H](Cc2ccccc2)C(=O)N[C@@H](CCCNC(=N)N)C(=O)N[C@@H](Cc2ccc(O)cc2)C(=O)O)NC(=O)CNC(=O)[C@H](CC(C)C)NC(=O)CNC(=O)[C@H](CO)NC(=O)[C@H](CCC(N)=O)NC(=O)[C@H](C)NC(=O)[C@H](CCCNC(=N)N)NC1=O [ANF23] (H-TAPRSLRRSSCFGGRIDRIRAQSGLGCNSFRY-OH; disulfide 11-27)
- pIC50 (hNPR-A): 10.36
- pIC50 (hNPR-C): 8.38
- Half-Life ([1]; FIG. 6: ANF variants 0.5 mg/ml, endopeptidase 11.24 (NEP) 0.225 mg/ml): 737 min

- half-life at 32 nM/ml ([1]; human): 571 min
SMILES: CC[C@H](C)[C@@H]1NC(=O)[C@H](CCCNC(=N)N)NC(=O)[C@H](CC(=O)O)NC(=O)[C@H]([C@@H](C)CC)NC(=O)[C@H](CC(=O)O)NC(=O)CNC(=O)[C@H](CCCNC(=N)N)NC(=O)[C@H](Cc2ccccc2)NC(=O)[C@@H](NC(=O)[C@H](CO)NC(=O)[C@H](CO)NC(=O)[C@H](CCCNC(=N)N)NC(=O)[C@H](CCCNC(=N)N)NC(=O)[C@H](CC(C)C)NC(=O)[C@@H](N)CO)CSSC[C@@H](C(=O)N[C@@H](CC(N)=O)C(=O)N[C@@H](CO)C(=O)N[C@@H](Cc2ccccc2)C(=O)N[C@@H](CCCNC(=N)N)C(=O)N[C@@H](Cc2ccc(O)cc2)C(=O)O)NC(=O)CNC(=O)[C@H](CC(C)C)NC(=O)CNC(=O)[C@H](CO)NC(=O)[C@H](CCC(N)=O)NC(=O)[C@H](C)NC(=O)[C@H](CCCNC(=N)N)NC1=O [ANF28] (H-SLRRSSCFRGDIDRIRAQSGLGCNSFRY-OH; disulfide 7-23)

SMILES: CC[C@H](C)[C@@H]1NC(=O)[C@H](CCCNC(=N)N)NC(=O)CNC(=O)CNC(=O)[C@H](Cc2ccccc2)NC(=O)[C@@H](C(C)C)NC(=O)[C@@H](NC(=O)[C@H](CO)NC(=O)[C@@H](N)CO)CSSC[C@@H](C(=O)N[C@@H](Cc2ccccc2)C(=O)N[C@@H](CCCNC(=N)N)C(=O)O)NC(=O)[C@H]([C@@H](C)CC)NC(=O)[C@H](CCCNC(=N)N)NC(=O)[C@H](CC(=O)O)NC1=O [ANF40] (H-SSC[dV]FGGRIDRICFR-OH; disulfide 3-13 (inferred); N-terminus and C-terminus assumed)
- half-life at 0.5 mg/ml ([1]; human): 597 min

- half-life at 32 nM/ml [2]: 106 min
SMILES: CC[C@H](C)[C@@H]1NC(=O)[C@H](CCCNC(=N)N)NC(=O)[C@H](CC(=O)O)NC(=O)[C@H]([C@@H](C)CC)NC(=O)[C@H](CC(=O)O)NC(=O)CNC(=O)[C@@H](C)NC(=O)[C@H](Cc2ccccc2)NC(=O)CCSSC[C@@H](C(=O)N[C@@H](CC(N)=O)C(=O)N[C@@H](CO)C(=O)N[C@@H](Cc2ccccc2)C(=O)N[C@@H](CCCNC(=N)N)C(=O)N[C@@H](Cc2ccc(O)cc2)C(=O)O)NC(=O)CNC(=O)[C@H](CC(C)C)NC(=O)CNC(=O)[C@H](CO)NC(=O)[C@H](CCC(N)=O)NC(=O)[C@H](C)NC(=O)[C@H](CCCNC(=N)N)NC1=O [ANF92] ([Mpa]F[dA]GDIDRIRAQSGLGCNSFRY-OH; disulfide 1-17)

- IC50 (hNPR-A; Table I, read-out: Binding Affinity IC50 (pM) hNPR-A): 187 pM
- IC50 (hNPR-C; Table I, read-out: Binding Affinity IC50 (pM) hNPR-C): 3.23e+06 pM
SMILES: CC[C@H](C)[C@@H]1NC(=O)[C@H](CCCNC(=N)N)NC(=O)[C@H](CC(=O)O)NC(=O)[C@H]([C@@H](C)CC)NC(=O)[C@H](CO)NC(=O)CNC(=O)[C@H]([C@@H](C)O)NC(=O)C(c2ccccc2)NC(=O)[C@@H](NC(=O)[C@H](CO)NC(=O)[C@H](CO)NC(=O)[C@H](CCCNC(=N)N)NC(=O)[C@H](CCCNC(=N)N)NC(=O)[C@H](CC(C)C)NC(=O)[C@@H](N)CO)CSSC[C@@H](C(=O)N[C@@H](CC(N)=O)C(=O)N[C@@H](CO)C(=O)N[C@@H](Cc2ccccc2)C(=O)N[C@@H](CCCNC(=N)N)C(=O)N[C@@H](Cc2ccc(O)cc2)C(=O)O)NC(=O)CNC(=O)[C@H](CC(C)C)NC(=O)CNC(=O)[C@H](CO)NC(=O)[C@H](CCC(N)=O)NC(=O)[C@H](C)NC(=O)[C@H](CCCNC(=N)N)NC1=O (some centres unmarked) [ANF100-1] (H-SLRRSSC[ξPhg]TGSIDRIRAQSGLGCNSFRY-OH; disulfide 7-23)
